Data as given in the NIST ThermoML archive (doi:10.1016/j.fluid.2010.08.022).

Conditions: 101.33 kPa, Liquid crystal of unknown type; for speed of sound: Sing-around technique in a fixed-path interferometer; for mass density: Vibrating tube method

CCCCCCCC/C=C\CCCCCCCC(=O)[O-].OCC[NH2+]CCO [bis(2-hydroxyethyl)ammonium oleate]
Conditions | mass density [kg/m3] | speed of sound [m/s]
278.14 K | 978.16 | 1601.5
278.39 K | 977.996 | 1600.3
278.64 K | 977.834 | 1599.2
278.89 K | 977.67 | 1598.1
279.14 K | 977.506 | 1596.9
279.39 K | 977.342 | 1595.7
279.64 K | 977.177 | 1594.6
279.89 K | 977.017 | 1593.5
280.15 K | 976.852 | 1592.3
280.4 K | 976.689 | 1591.2
280.65 K | 976.525 | 1590.1
280.89 K | 976.361 | 1589
281.15 K | 976.197 | 1587.9
281.4 K | 976.035 | 1586.8
281.65 K | 975.87 | 1585.7
281.9 K | 975.706 | 1584.6
282.15 K | 975.544 | 1583.5
282.4 K | 975.38 | 1582.5
282.65 K | 975.217 | 1581.4
282.9 K | 975.053 | 1580.3
283.15 K | 974.89 | 1579.3
283.4 K | 974.726 | 1578.2
283.65 K | 974.562 | 1577.2
283.9 K | 974.401 | 1576.2
284.15 K | 974.236 | 1575.1
284.4 K | 974.073 | 1574
284.65 K | 973.91 | 1573
284.9 K | 973.745 | 1572
285.15 K | 973.584 | 1571
285.4 K | 973.419 | 1569.9
285.65 K | 973.258 | 1568.9
285.9 K | 973.092 | 1567.9
286.15 K | 972.93 | 1566.9
286.4 K | 972.766 | 1565.8
286.65 K | 972.604 | 1564.8
286.9 K | 972.442 | 1563.8
287.15 K | 972.275 | 1562.8
287.4 K | 972.113 | 1561.8
287.65 K | 971.951 | 1560.8
287.9 K | 971.788 | 1559.8
288.15 K | 971.625 | 1558.8
288.4 K | 971.46 | 1557.8
288.65 K | 971.299 | 1556.7
288.9 K | 971.135 | 1555.8
289.15 K | 970.972 | 1554.8
289.4 K | 970.811 | 1553.8
289.65 K | 970.645 | 1552.8
289.9 K | 970.483 | 1551.8
290.15 K | 970.32 | 1550.8
290.4 K | 970.158 | 1549.8
290.65 K | 969.995 | 1548.9
290.9 K | 969.831 | 1547.9
291.15 K | 969.668 | 1546.9
291.4 K | 969.506 | 1545.9
291.65 K | 969.343 | 1544.9
291.9 K | 969.18 | 1543.8
292.15 K | 969.016 | 1542.7
292.4 K | 968.854 | 1541.7
292.65 K | 968.691 | 1540.8
292.9 K | 968.527 | 1539.8
293.15 K | 968.365 | 1538.9
293.4 K | 968.202 | 1538
293.65 K | 968.039 | 1537.1
293.9 K | 967.876 | 1536.2
294.15 K | 967.713 | 1535.3
294.4 K | 967.548 | 1534.4
294.65 K | 967.388 | 1533.5
294.91 K | 967.225 | 1532.7
295.15 K | 967.061 | 1531.8
295.4 K | 966.898 | 1530.9
295.66 K | 966.735 | 1530
295.91 K | 966.572 | 1529.1
296.16 K | 966.408 | 1528.3
296.4 K | 966.246 | 1527.4
296.66 K | 966.084 | 1526.5
296.91 K | 965.921 | 1525.6
297.16 K | 965.758 | 1524.8
297.41 K | 965.595 | 1523.9
297.66 K | 965.433 | 1523
297.91 K | 965.27 | 1522.2
298.16 K | 965.108 | 1521.3
298.41 K | 964.945 | 1520.5
298.66 K | 964.781 | 1519.6
298.9 K | 964.619 | 1518.8
299.15 K | 964.457 | 1517.9
299.4 K | 964.294 | 1517.1
299.66 K | 964.132 | –
299.91 K | 963.968 | 1515.4
300.16 K | 963.805 | 1514.5
300.4 K | 963.642 | 1513.7
300.66 K | 963.481 | 1512.8
300.9 K | 963.318 | 1512
301.16 K | 963.154 | 1511.2
301.41 K | 962.991 | 1510.3
301.66 K | 962.83 | 1509.5
301.91 K | 962.666 | 1508.7
302.16 K | 962.503 | 1507.8
302.41 K | 962.341 | 1507
302.66 K | 962.178 | 1506.1
302.91 K | 962.013 | 1505.3
303.16 K | 961.853 | 1504.5
303.41 K | 961.689 | 1503.6
303.66 K | 961.527 | 1502.8
303.91 K | 961.364 | 1502
304.16 K | 961.2 | 1501.2
304.41 K | 961.038 | 1500.3
304.66 K | 960.875 | 1499.5
304.91 K | 960.712 | 1498.7
305.16 K | 960.55 | 1497.9
305.41 K | 960.387 | 1497
305.66 K | 960.223 | 1496.2
305.91 K | 960.061 | 1495.4
306.16 K | 959.898 | 1494.6
306.4 K | 959.736 | 1493.8
306.65 K | 959.573 | 1493
306.91 K | 959.409 | 1492.1
307.16 K | 959.246 | 1491.3
307.41 K | 959.083 | 1490.5
307.66 K | 958.92 | 1489.7
307.91 K | 958.759 | 1488.9
308.16 K | 958.595 | 1488.1
308.4 K | 958.43 | 1487.3
308.65 K | 958.268 | 1486.5
308.91 K | 958.105 | 1485.7
309.16 K | 957.942 | 1484.9
309.4 K | 957.779 | 1484.1
309.66 K | 957.617 | 1483.3
309.91 K | 957.453 | 1482.5
310.16 K | 957.289 | 1481.7
310.41 K | 957.128 | 1480.9
310.66 K | 956.963 | 1480.1
